{"source": "patent US7074824B2", "about": "“Pharmaceutical compositions containing beta-lapachone, or derivatives or analogs thereof, and methods of using same” (Arqule, Inc., priority 2001, dated 2006)", "key": {"[1]": {"system": "Human ovarian cancer cells (36M2)", "test": "Human ovarian cancer xenograft model, β-lapachone in Lipiodol and Taxol®", "type": "in vivo, athymic female nude mice", "details": "i.p., 10 cycles", "experimental": "Human ovarian cancer cells (36M2, originally isolated from malignant ascites) were inoculated by i.p. injection into athymic female nude mice 24 h after irradiation. In this model, metastatic foci form approximately 1 week after inoculation, and tumor nodules of the peritoneum and malignant ascites develop in 4–5 weeks. Ten days after tumor inoculation (10×10^6 cells), treatment regimens were initiated. The control group was treated with vehicle alone. In each typical treatment cycle, the β-lapachone alone group was treated with 25–50 mg/kg i.p. of β-lapachone in Lipiodol solution and the Taxol® alone group was treated at 1 mg/kg i.p. (Taxol® formulation diluted in Lipiodol), both followed 24 h later by i.p. injection of vehicle. In the combination group, nude mice were treated with β-lapachone at 25–50 mg/kg, followed 24 h later by Taxol® at 1 mg/kg. All groups were treated for 10 cycles, with a 1-day break between each cycle. […] Host toxicity was evaluated by general appearance and body weight."}, "A2780DDP": {"system": "A2780DDP", "experimental": "In testing β-lapachone against the cisplatin-resistant-cell lines, cells were exposed to β-lapachone solutions for 4 h. The cells were then rinsed and fresh medium was added. Cultures were observed daily for 10–20 days and then were fixed and stained. Colonies of greater than 30 cells were scored as survivors."}, "human cancer cell lines": {"system": "human cancer cell lines", "details": "single agent, typical range; read-out: antineoplastic activity (IC50); cited from earlier work"}, "[2]": {"molecular_target": "human DNA Topoisomerases II (Homo sapiens, UniProt P11388)", "sequence (P11388 whole entry)": "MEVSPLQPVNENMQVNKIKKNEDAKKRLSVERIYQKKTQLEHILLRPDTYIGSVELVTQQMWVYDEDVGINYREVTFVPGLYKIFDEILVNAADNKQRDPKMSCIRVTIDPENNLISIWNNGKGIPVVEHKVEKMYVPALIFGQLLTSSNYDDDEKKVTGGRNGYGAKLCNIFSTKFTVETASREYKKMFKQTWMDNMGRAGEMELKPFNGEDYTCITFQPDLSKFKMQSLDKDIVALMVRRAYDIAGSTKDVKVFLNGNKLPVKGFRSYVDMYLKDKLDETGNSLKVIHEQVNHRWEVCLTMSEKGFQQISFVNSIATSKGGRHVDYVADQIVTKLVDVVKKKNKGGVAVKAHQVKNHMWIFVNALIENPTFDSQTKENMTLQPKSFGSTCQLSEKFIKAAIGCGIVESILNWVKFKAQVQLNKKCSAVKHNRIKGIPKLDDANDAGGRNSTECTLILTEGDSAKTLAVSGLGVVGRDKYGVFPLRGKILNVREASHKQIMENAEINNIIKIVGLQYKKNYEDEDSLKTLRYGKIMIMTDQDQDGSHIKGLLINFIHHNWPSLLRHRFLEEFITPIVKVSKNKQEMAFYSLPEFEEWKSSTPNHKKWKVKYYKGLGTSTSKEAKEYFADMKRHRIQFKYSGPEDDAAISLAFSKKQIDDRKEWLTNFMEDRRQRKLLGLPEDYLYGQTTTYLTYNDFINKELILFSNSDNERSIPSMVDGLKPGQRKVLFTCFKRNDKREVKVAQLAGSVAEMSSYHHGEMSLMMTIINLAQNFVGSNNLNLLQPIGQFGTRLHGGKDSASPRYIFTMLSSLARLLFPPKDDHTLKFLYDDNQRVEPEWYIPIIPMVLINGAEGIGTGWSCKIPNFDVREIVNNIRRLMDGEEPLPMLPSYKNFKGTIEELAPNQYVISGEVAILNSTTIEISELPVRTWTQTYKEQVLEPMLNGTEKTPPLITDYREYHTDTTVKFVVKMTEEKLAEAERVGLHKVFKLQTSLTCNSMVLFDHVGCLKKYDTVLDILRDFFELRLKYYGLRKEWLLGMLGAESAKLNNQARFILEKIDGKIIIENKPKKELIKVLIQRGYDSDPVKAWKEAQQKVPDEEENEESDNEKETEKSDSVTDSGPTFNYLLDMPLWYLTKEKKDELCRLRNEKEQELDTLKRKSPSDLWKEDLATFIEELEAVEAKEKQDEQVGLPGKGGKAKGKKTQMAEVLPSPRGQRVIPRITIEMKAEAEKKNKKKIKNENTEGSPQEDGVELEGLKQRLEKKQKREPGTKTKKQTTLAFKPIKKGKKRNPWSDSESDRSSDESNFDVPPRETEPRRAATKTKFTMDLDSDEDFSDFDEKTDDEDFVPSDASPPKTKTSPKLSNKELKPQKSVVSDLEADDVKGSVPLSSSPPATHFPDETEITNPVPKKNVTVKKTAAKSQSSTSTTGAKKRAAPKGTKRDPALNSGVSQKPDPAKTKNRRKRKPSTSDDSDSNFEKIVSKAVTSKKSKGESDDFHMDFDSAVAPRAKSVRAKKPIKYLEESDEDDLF", "details": "cited from earlier work"}, "[3]": {"system": "six human cancer cells lines", "test": "MTS growth inhibition assay, summary over all lines", "type": "cell-based", "details": "all six tumor cell lines; tested up to 20 μM", "experimental": "(§1) A2780 and A2780/CP (ovarian); MCF-7 (breast); HT-29 (colon); BxPC-3 (pancreas); and A549 (lung). The human tumor cell lines (purchased from ATCC, Rockville, Md.) were cultured at 37° C. (5% CO2) in RPMI medium (RPMI; Nova Tech, Grand Island, N.Y.) containing 10% fetal bovine serum (FBS, Nova Tech). Aliquots of cells were seeded into each well of 96-well microtiter plates at a final concentration of 10^4 cells/well and incubated for 24 h prior to exposure to test compounds. […] The MTS assay is a colorimetric assay based upon the ability of viable cells to convert MTS, a novel tetrazolium compound and electron-coupling reagent, to a colored formazan product that is soluble in cell culture medium. The cell concentration is then determined by measuring the absorbance of the formazan product at 490 nm. Growth inhibition, expressed as IC50, is calculated relative to vehicle-treated control cells."}, "BxPC-3": {"system": "BxPC-3", "test": "MTS growth inhibition assay", "type": "cell-based, human", "details": "Homo sapiens", "experimental": "as §1, with “(5% CO2) in RPMI medium (RPMI;” left out"}, "A2780CP": {"system": "A2780CP", "test": "MTS growth inhibition assay", "type": "cell-based, human", "details": "Homo sapiens, A2780C/P", "experimental": "as §1, with “(5% CO2) in RPMI medium (RPMI;” left out"}, "HT-29": {"system": "HT-29", "test": "MTS growth inhibition assay", "type": "cell-based, human", "details": "Homo sapiens", "experimental": "as §1, with “(5% CO2) in RPMI medium (RPMI;” left out"}, "A549": {"system": "A549", "test": "MTS growth inhibition assay", "type": "cell-based, human", "details": "Homo sapiens", "experimental": "as §1, with “(5% CO2) in RPMI medium (RPMI;” left out"}, "A2780": {"system": "A2780", "test": "MTS growth inhibition assay", "type": "cell-based, human", "details": "Homo sapiens", "experimental": "as §1, with “(5% CO2) in RPMI medium (RPMI;” left out"}, "MCF-7": {"system": "MCF-7", "test": "MTS growth inhibition assay", "type": "cell-based, human", "details": "Homo sapiens", "experimental": "as §1, with “(5% CO2) in RPMI medium (RPMI;” left out"}, "[4]": {"test": "Solubility in water and in 40% (w/v) HPBCD solution by UV absorbance", "type": "physicochemical", "details": "for solubility at 1 h: thermodynamic from solid", "experimental": "To determine solubilities, test compounds were first dissolved in ethanol to prepare standard solutions with concentrations in the range 2.5–10 mg/ml, then were diluted with to 10 μg/ml with water. UV scans were obtained of the 10 μg/ml standard solutions, and the wavelength of maximum absorbance and the absorbance at the maximum absorbance wavelength were determined. For each test compound 50 μl aliquots of water and of 40% HPBCD were added to individual Eppendorf tubes containing approximately 1 mg of compound each. The tubes were heated in a 30° C. waterbath, vortexed, then centrifuged at 15,000 rpm for 5 min. This step was repeated, then the tubes were cooled to room temperature for 1 hour, then were centrifuged again. The supernatant from each tube was diluted with water into the appropriate absorbance range, and the UV absorbance was measured at the compound's absorbance maximum wavelength. The concentrations of these saturated solutions were then calculated by ratio to the 10 μg/ml ethanolic standard solutions."}}, "note": "Read-outs that look alike come from different tables or passages of the source."}
{"compound": "CC1(C)CCC2=C(O1)c1ccccc1C(=O)C2=O", "note": "[β-lapachone]", "values": [{"measurement": "decrease in tumor number versus control", "setting": "[1]; assessed day 50, β-lapachone 25–50 mg/kg in Lipiodol, Taxol® 1 mg/kg", "value": "~75", "unit": "%"}, {"measurement": "size of the tumor nodules and amount of ascites", "setting": "[1]; laparotomy at day 50", "value": "considerable reduction in the size of the tumor nodules and the amount of ascites"}, {"measurement": "cytotoxicity as single agent, resistant versus parent line", "setting": "A2780DDP", "value": "equally cytotoxic"}, {"measurement": "IC50", "setting": "human cancer cell lines", "value": "1 to 10", "unit": "µM"}, {"measurement": "in vitro inhibition", "setting": "[2]", "value": "potent in vitro inhibition"}, {"measurement": "growth inhibitory activity, verbal summary", "setting": "[3]", "value": "dose-dependent inhibitory effect"}, {"measurement": "IC50", "setting": "BxPC-3; BXPC-3, read-out: Growth inhibitory activity (50% effective concentration, IC50), BxPC-3 pancreas, Exp 1", "value": 11.6, "unit": "µM"}, {"measurement": "IC50", "setting": "BxPC-3; BXPC-3, read-out: Growth inhibitory activity (50% effective concentration, IC50), BxPC-3 pancreas, Exp 2", "value": 5.68, "unit": "µM"}, {"measurement": "IC50", "setting": "BxPC-3; BXPC-3, read-out: Growth inhibitory activity (50% effective concentration, IC50), BxPC-3 pancreas, Exp 3", "value": 16.5, "unit": "µM"}, {"measurement": "IC50", "setting": "BxPC-3; BXPC-3, read-out: Growth inhibitory activity (50% effective concentration, IC50), BxPC-3 pancreas, Mean ± SE of 3 experiments", "value": "11.3 ± 3.12", "unit": "µM"}, {"measurement": "IC50", "setting": "A2780CP; read-out: Growth inhibitory activity (50% effective concentration, IC50), A2780CP (resistant) ovarian, Exp 1", "value": 4.47, "unit": "µM"}, {"measurement": "IC50", "setting": "A2780CP; read-out: Growth inhibitory activity (50% effective concentration, IC50), A2780CP (resistant) ovarian, Exp 2", "value": 1.61, "unit": "µM"}, {"measurement": "IC50", "setting": "A2780CP; read-out: Growth inhibitory activity (50% effective concentration, IC50), A2780CP (resistant) ovarian, Exp 3", "value": 1.76, "unit": "µM"}, {"measurement": "IC50", "setting": "A2780CP; read-out: Growth inhibitory activity (50% effective concentration, IC50), A2780CP (resistant) ovarian, Mean ± SE of 3 experiments", "value": "2.61 ± 0.93", "unit": "µM"}, {"measurement": "IC50", "setting": "HT-29; HT-29, read-out: Growth inhibitory activity (50% effective concentration, IC50), HT-29 colon, Exp 1", "value": 5.37, "unit": "µM"}, {"measurement": "IC50", "setting": "HT-29; HT-29, read-out: Growth inhibitory activity (50% effective concentration, IC50), HT-29 colon, Exp 2", "value": 11.4, "unit": "µM"}, {"measurement": "IC50", "setting": "HT-29; HT-29, read-out: Growth inhibitory activity (50% effective concentration, IC50), HT-29 colon, Exp 3", "value": 9.89, "unit": "µM"}, {"measurement": "IC50", "setting": "HT-29; HT-29, read-out: Growth inhibitory activity (50% effective concentration, IC50), HT-29 colon, Mean ± SE of 3 experiments", "value": "8.89 ± 1.82", "unit": "µM"}, {"measurement": "IC50", "setting": "A549; A549, read-out: Growth inhibitory activity (50% effective concentration, IC50), A549 lung, Exp 1", "value": 4.48, "unit": "µM"}, {"measurement": "IC50", "setting": "A549; A549, read-out: Growth inhibitory activity (50% effective concentration, IC50), A549 lung, Exp 2", "value": 4.73, "unit": "µM"}, {"measurement": "IC50", "setting": "A549; A549, read-out: Growth inhibitory activity (50% effective concentration, IC50), A549 lung, Exp 3", "value": 18.7, "unit": "µM"}, {"measurement": "IC50", "setting": "A549; A549, read-out: Growth inhibitory activity (50% effective concentration, IC50), A549 lung, Mean ± SE of 3 experiments", "value": "9.3 ± 4.69", "unit": "µM"}, {"measurement": "IC50", "setting": "A2780; A2780, read-out: Growth inhibitory activity (50% effective concentration, IC50), A2780 (sensitive) ovarian, Exp 1, 4 h treatment + 24 h drug-free", "value": 2.11, "unit": "µM"}, {"measurement": "IC50", "setting": "A2780; A2780, read-out: Growth inhibitory activity (50% effective concentration, IC50), A2780 (sensitive) ovarian, Exp 2, 4 h treatment + 24 h drug-free", "value": 3.99, "unit": "µM"}, {"measurement": "IC50", "setting": "A2780; A2780, read-out: Growth inhibitory activity (50% effective concentration, IC50), A2780 (sensitive) ovarian, Exp 3, 4 h treatment + 24 h drug-free", "value": 0.876, "unit": "µM"}, {"measurement": "IC50", "setting": "A2780; A2780, read-out: Growth inhibitory activity (50% effective concentration, IC50), A2780 (sensitive) ovarian, Mean ± SE of 3 experiments", "value": "2.32 ± 0.91", "unit": "µM"}, {"measurement": "IC50", "setting": "MCF-7; MCF7, read-out: Growth inhibitory activity (50% effective concentration, IC50), MCF-7 breast, Exp 1", "value": 2.37, "unit": "µM"}, {"measurement": "IC50", "setting": "MCF-7; MCF7, read-out: Growth inhibitory activity (50% effective concentration, IC50), MCF-7 breast, Exp 2", "value": 4.75, "unit": "µM"}, {"measurement": "IC50", "setting": "MCF-7; MCF7, read-out: Growth inhibitory activity (50% effective concentration, IC50), MCF-7 breast, Exp 3", "value": 2.1, "unit": "µM"}, {"measurement": "IC50", "setting": "MCF-7; MCF7, read-out: Growth inhibitory activity (50% effective concentration, IC50), MCF-7 breast, Mean ± SE of 3 experiments", "value": "3.07 ± 0.84", "unit": "µM"}, {"measurement": "Solubility Enhancement", "setting": "[4]; 1 h", "value": "323 −Fold"}, {"measurement": "solubility at 1 h", "setting": "[4]; aqueous with cosolvent or surfactant or cyclodextrin", "value": 14000, "unit": "µg/mL"}, {"measurement": "solubility at 1 h", "setting": "[4]; water", "value": 43, "unit": "µg/mL"}]}
